Tests used:
[1] = Individual serum elimination rate and half-life (linear regression per employee); settings: individual estimate; for half-life: human, serum, oral, HL (half-life)
Summary of the method: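 Log-transformed serum PFAS concentrations regressed on days since clean bottled water supply, per employee, assuming one-compartment first-order elimination. Individual k taken as −β (negative slope); half-life as ln2/k for each PFAS. No half-life calculated when β was positive.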

[2] = PFAS levels in serum samples of airport employees (LC/MS/MS)
Summary of the method: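 Serum from airport employees, drawn after contaminated drinking-water exposure ended, up to five monthly rounds, all reanalyzed in one batch. 25 μL serum precipitated with acetonitrile/methanol plus labeled internal standards; LC/MS/MS on BEH C18 with ammonium acetate/methanol gradient, calibrants prepared in FBS.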

[3] = 1st sampling (September 2018), count 17
[4] = 2nd sampling (October 2018), count 17
[5] = 3rd sampling (November, 2018), count 17
[6] = 4th sampling (December 2018), count 16
[7] = 5th sampling (January 2019), count 16
[8] = first serum samples, all 26 airport employees
[9] = median of first serum samples, all 26 airport employees

O=C(O)C(F)(F)C(F)(F)C(F)(F)C(F)(F)C(F)(F)C(F)(F)F [PFHpA, perfluoroheptanoic acid] gave a half-life ([1]; subject 1, 5 samples) of 110 days, a half-life ([1]; subject 2, 5 samples) of 73 days and a half-life ([1]; subject 3, 5 samples) of 146 days. It also gave a half-life ([1]; subject 4, 5 samples) of 73 days, a half-life ([1]; subject 5, 5 samples) of 183 days and a half-life ([1]; subject 6, 4 samples) of 73 days. The half-life ([1]; subject 7, 5 samples) was 36.5 days, the half-life ([1]; subject 8, 5 samples) was 36.5 days and the half-life ([1]; subject 9, 5 samples) was 36.5 days. The half-life ([1]; subject 10, 5 samples) was 110 days, the half-life ([1]; subject 11, 5 samples) was 110 days and the half-life ([1]; subject 12, 5 samples) was 36.5 days. The half-life ([1]; subject 13, 5 samples) was 36.5 days, the half-life ([1]; subject 14, 4 samples) was 36.5 days and the half-life ([1]; subject 15, 5 samples) was 73 days. It also gave a half-life ([1]; subject 16, 5 samples) of 256 days, a half-life ([1]; subject 17, 5 samples) of 36.5 days and an Elimination rate ([1]; subject 1, 5 samples) of 2.1 yearly. It also gave an Elimination rate ([1]; subject 2, 5 samples) of 3.7 yearly, an Elimination rate ([1]; subject 3, 5 samples) of 1.7 yearly and an Elimination rate ([1]; subject 4, 5 samples) of 3.2 yearly. For the same molecule, the Elimination rate ([1]; subject 5, 5 samples) was 1.3 yearly, the Elimination rate ([1]; subject 6, 4 samples) was 4.1 yearly and the Elimination rate ([1]; subject 7, 5 samples) was 4.6 yearly. It also gave an Elimination rate ([1]; subject 8, 5 samples) of 5.4 yearly, an Elimination rate ([1]; subject 9, 5 samples) of 7.8 yearly and an Elimination rate ([1]; subject 10, 5 samples) of 2.2 yearly. For the same molecule, the Elimination rate ([1]; subject 11, 5 samples) was 2.6 yearly, the Elimination rate ([1]; subject 12, 5 samples) was 6.7 yearly and the Elimination rate ([1]; subject 13, 5 samples) was 5.4 yearly. It also gave an Elimination rate ([1]; subject 14, 4 samples) of 6.6 yearly, an Elimination rate ([1]; subject 15, 5 samples) of 3.9 yearly and an Elimination rate ([1]; subject 16, 5 samples) of 0.9 yearly. The Elimination rate ([1]; subject 17, 5 samples) was 5.2 yearly, the “Serum PFAS level, 25 percentile” value [2, 3] was 0.45 and the “Serum PFAS level, 75 percentile” value [2, 3] was 1.1. The “Serum PFAS level, Max” value [2, 3] was 2.2, the “Serum PFAS level, Median” value [2, 3] was 0.53 and the “Serum PFAS level, Min” value [2, 3] was 0.20. The “Serum PFAS level, 25 percentile” value [2, 4] was 0.18, the “Serum PFAS level, 75 percentile” value [2, 4] was 0.83 and the “Serum PFAS level, Max” value [2, 4] was 2.0. For the same molecule, the “Serum PFAS level, Median” value [2, 4] was 0.33, the “Serum PFAS level, Min” value [2, 4] was 0.07 and the “Serum PFAS level, 25 percentile” value [2, 5] was 0.09. For the same molecule, the “Serum PFAS level, 75 percentile” value [2, 5] was 0.75, the “Serum PFAS level, Max” value [2, 5] was 2.0 and the “Serum PFAS level, Median” value [2, 5] was 0.27. For the same molecule, the “Serum PFAS level, Min” value [2, 5] was 0.08, the “Serum PFAS level, 25 percentile” value [2, 6] was 0.09 and the “Serum PFAS level, 75 percentile” value [2, 6] was 0.72. The “Serum PFAS level, Max” value [2, 6] was 1.8, the “Serum PFAS level, Median” value [2, 6] was 0.15 and the “Serum PFAS level, Min” value [2, 6] was 0.05. The “Serum PFAS level, 25 percentile” value [2, 7] was “< LOD”, the “Serum PFAS level, 75 percentile” value [2, 7] was 0.50 and the “Serum PFAS level, Max” value [2, 7] was 1.4. The “Serum PFAS level, Median” value [2, 7] was 0.10, the “Serum PFAS level, Min” value [2, 7] was “< LOD” and the “Serum level in the first samples, median (range)” value ([2]; all 26 airport employees) was 0.46 (0.07–2.2) ng/mL. The “PFAS in first serum sample, median (range)” value ([2]; employees participated in first blood sampling and repeated blood and urine sampling, N=17) was 0.53 (0.20–2.2) ng/mL, the “PFAS in first serum sample, median (range)” value ([2]; employees participated in first blood sampling only, N=9, 11-14 d after end of exposure) was 0.17 (0.07–1.3) ng/mL and the “Initial serum PFAS level, max” value ([2]; females (N=7)) was 2.2 ng/mL. The “Initial serum PFAS level, median” value ([2]; females (N=7)) was 0.46 ng/mL, the “Initial serum PFAS level, min” value ([2]; females (N=7)) was 0.08 ng/mL and the “Relative composition of PFAS in serum, molar concentration basis” value [2, 8] was 0.5%. The “Relative composition of PFAS in serum, weight basis” value [2, 8] was 0.4%, the “Initial serum PFAS level, Max” value ([2]; males (N=19)) was 2.0 ng/mL and the “Initial serum PFAS level, Min” value ([2]; males (N=19)) was 0.07 ng/mL. For the same molecule, the “Initial serum PFAS level, median” value ([2]; males (N=19)) was 0.45 ng/mL, the “Serum concentration, molar basis” value [2, 9] was 0.0013 and the “Serum concentration, weight basis” value [2, 9] was 0.46.

— PMC7351026, “Serum Half-Lives for Short- and Long-Chain Perfluoroalkyl Acids after Ceasing Exposure from Drinking Water Contaminated by Firefighting Foam” (Environmental Health Perspectives, 2020)
